# Source: patent US10653717B2, “Antibiotic compositions” (priority 2016, dated 2020)
# Where two headings read alike, the source gives them in different places.
# Legend:
# [1] = system: E. coli DHB4 gor^−grxA^−B^−C^−; assay: microbe, parasite or virus in culture; format: cell-based, Escherichia coli; conditions: Escherichia coli, 24 h, read-out: MIC of ebselen in the presence of silver
# Method: (§1) Since Trx and GSH/Grx are major thiol-dependent systems, investigated were the effects of Ag^+ with ebselen in combination on Trx or GSH system-deficient E. coli redox mutants.
# (§2) Serial dilutions of ebselen and AgNO3 were added to the individual wells. The minimum inhibitory concentration (MIC) was determined after 24 h culture at 37° C.
# E. coli DHB4 gor^− = assay: microbe, parasite or virus in culture; format: cell-based, Escherichia coli; conditions: Escherichia coli, 24 h, read-out: MIC of ebselen in the presence of silver
# Method: as §1, §2
# [2] = system: E. coli DHB4 grxA^−trxA^−; assay: microbe, parasite or virus in culture; format: cell-based, Escherichia coli; conditions: Escherichia coli, 24 h, read-out: MIC of ebselen in the presence of silver
# Method: as §1, §2
# E. coli DHB4 gshA^− = assay: microbe, parasite or virus in culture; format: cell-based, Escherichia coli; conditions: read-out: MIC of ebselen in the presence of silver
# Method: as §1, §2
# [3] = system: E. coli DHB4 trxA^−B^−C^−; assay: microbe, parasite or virus in culture; format: cell-based, Escherichia coli; conditions: Escherichia coli, 24 h, read-out: MIC of ebselen in the presence of silver
# Method: as §1, §2
# [4] = system: E. coli DHB4 trxA^−gshA^−; assay: microbe, parasite or virus in culture; format: cell-based, Escherichia coli; conditions: read-out: MIC of ebselen in the presence of silver
# Method: as §1, §2
# E. coli DHB4 trxA^− = assay: microbe, parasite or virus in culture; format: cell-based, Escherichia coli; conditions: Escherichia coli, 24 h, read-out: MIC of ebselen in the presence of silver
# Method: as §1, §2
# E. coli DHB4 trxB^− = assay: microbe, parasite or virus in culture; format: cell-based, Escherichia coli; conditions: Escherichia coli, 24 h, read-out: MIC of ebselen in the presence of silver
# Method: as §1, §2
# E. coli DHB4 trxC^− = assay: microbe, parasite or virus in culture; format: cell-based, Escherichia coli; conditions: read-out: MIC of ebselen in the presence of silver
# Method: as §1, §2
# [5] = system: KP-2: K. pneumonia subsp. pneumonia 0322#; assay: MIC of silver with antibiotics on clinical isolated MDR Gram-negative bacteria; format: cell-based, Klebsiella pneumonia; conditions: antibiotic 4 μM
# Method: (§3) There are five clinically most difficult-to-treat MDR Gram-negative pathogen species: Klebsiella pneumonia, Acinetobacter baumannii, Pseudomonas aeruginosa, Enterobacter cloacae and Escherichia coli. One strain from each species was isolated, and overnight cultures were diluted 1:1000 times in LB medium, and treated with serial concentrations of Ag^+ and antibiotics in combinations for 24 h (Table 10).
# (§4) Five clinical isolated MDR Gram-negative strains were grown until an OD600 nm of 0.4, and were diluted 1:1,000 into 100 μl LB medium in 96 micro-well plates. […] The cultures treated with the same serial dilutions of 100 μl ebselen and silver nitrate were used as the positive control.
# ECL-2: E. cloacae 2301# = assay: as above; format: cell-based, Enterobacter cloacae; conditions: antibiotic 4 μM
# Method: as §3, §4
smiles,measurement,setting,value
"O=c1c2ccccc2[se]n1-c1ccccc1 [ebselen, 2-phenyl-1,2-benzisoselenazol-3(2H)-one]",MIC,[1]; Silver 0 μM,40 µM
same,MIC,[1]; Silver 5 μM,1 µM
same,MIC,[1]; Silver 10 μM,0.5 µM
same,MIC,E. coli DHB4 gor^−; Silver 0 μM,80 µM
same,MIC,E. coli DHB4 gor^−; Silver 5 μM,1 µM
same,MIC,E. coli DHB4 gor^−; Silver 10 μM,1 µM
same,MIC,E. coli DHB4 gor^−; Silver 20 μM,0.5 µM
same,MIC,[2]; Silver 0 μM,40 µM
same,MIC,[2]; Silver 5 μM,1 µM
same,MIC,[2]; Silver 10 μM,0.5 µM
same,MIC,"E. coli DHB4 gshA^−; Escherichia coli, 24 h, Silver 0 μM, gshA^−, 24 h",40 µM
same,MIC,"E. coli DHB4 gshA^−; Escherichia coli, 24 h, Silver 5 μM, gshA^−, 24 h",1 µM
same,MIC,"E. coli DHB4 gshA^−; Escherichia coli, 24 h, Silver 10 μM, gshA^−, 24 h",0.5 µM
same,MIC,"E. coli DHB4 gshA^−; Escherichia coli, 24 h",4 µM
same,MIC,E. coli DHB4 gshA^−,2 µM
same,MIC,[3]; Silver 0 μM,80 µM
same,MIC,[3]; Silver 5 μM,1 µM
same,MIC,[3]; Silver 10 μM,0.5 µM
same,MIC,[3]; Silver 20 μM,0.5 µM
same,MIC,"[4]; Escherichia coli, 24 h, Silver 0 μM, trxA^−gshA^−, 24 h",40 µM
same,MIC,"[4]; Escherichia coli, 24 h, Silver 5 μM, trxA^−gshA^−, 24 h",1 µM
same,MIC,"[4]; Escherichia coli, 24 h, Silver 10 μM, trxA^−gshA^−, 24 h",0.5 µM
same,MIC,"[4]; Escherichia coli, 24 h",4 µM
same,MIC,[4],2 µM
same,MIC,E. coli DHB4 trxA^−; Silver 0 μM,80 µM
same,MIC,E. coli DHB4 trxA^−; Silver 5 μM,1 µM
same,MIC,E. coli DHB4 trxA^−; Silver 10 μM,1 µM
same,MIC,E. coli DHB4 trxA^−; Silver 20 μM,0.5 µM
same,MIC,E. coli DHB4 trxB^−; Silver 0 μM,80 µM
same,MIC,E. coli DHB4 trxB^−; Silver 5 μM,1 µM
same,MIC,E. coli DHB4 trxB^−; Silver 10 μM,0.5 µM
same,MIC,E. coli DHB4 trxB^−; Silver 20 μM,0.5 µM
same,MIC,"E. coli DHB4 trxC^−; Escherichia coli, 24 h, Silver 0 μM, trxC^−, 24 h",80 µM
same,MIC,"E. coli DHB4 trxC^−; Escherichia coli, 24 h, Silver 5 μM, trxC^−, 24 h",2 µM
same,MIC,"E. coli DHB4 trxC^−; Escherichia coli, 24 h, Silver 10 μM, trxC^−, 24 h",1 µM
same,MIC,"E. coli DHB4 trxC^−; Escherichia coli, 24 h, Silver 20 μM, trxC^−, 24 h",0.5 µM
same,MIC,"E. coli DHB4 trxC^−; Escherichia coli, 24 h",8 µM
same,MIC,E. coli DHB4 trxC^−,4 µM
same,MIC of silver in the presence of different antibiotics,[5],40 µM
same,MIC of silver in the presence of different antibiotics,ECL-2: E. cloacae 2301#,10 µM
